According to US8853175B2, “Phenethylsulfone isoindoline derivatives and their use” (Celgene Corporation, priority 2010, dated 2014):

How the values were obtained:
TNFα = TNFα inhibition assay in PBMC (LPS-stimulated); type: cell-based; conditions: Homo sapiens; PBMC stimulated with LPS 1 ng/ml; TNFα by ELISA; read-out: IC50 for inhibiting TNFα
Description: Peripheral blood mononuclear cells (PBMC) from normal donors are obtained by Ficoll Hypaque (Pharmacia, Piscataway, N.J., USA) density centrifugation. Cells are cultured in RPMI 1640 (Life Technologies, Grand Island, N.Y., USA) supplemented with 10% AB+human serum (Gemini Bio-products, Woodland, Calif., USA), 2 mM L-glutamine, 100 U/ml penicillin, and 100 μg/ml streptomycin (Life Technologies).
PBMC (2×10^5 cells) are plated in 96-well flat-bottom Costar tissue culture plates (Corning, N.Y., USA) in triplicate. Cells are stimulated with LPS (from Salmonella abortus equi, Sigma cat. no. L-1887, St. Louis, Mo. USA) at 1 ng/ml final in the absence or presence of compounds. Compounds provided herein are dissolved in DMSO (Sigma) and further dilutions are done in culture medium immediately before use. The final DMSO concentration in all assays can be about 0.25%. Compounds are added to cells 1 hour before LTS stimulation. Cells are then incubated for 18-20 hours at 37° C. in 5% CO2, and supernatants are then collected, diluted with culture medium and assayed for TNFα levels by ELISA (Endogen, Boston, Mass. USA). IC50s are calculated using non-linear regression, sigmoidal dose-response, constraining the top to 100% and bottom to 0%, allowing variable slope (GraphPad Prism v3.02).

PDE 4 = PDE 4 inhibition assay; type: biochemical, human; conditions: crude PDE 4 enzyme from U937 cells; 1 μM cAMP; read-out: IC50 for inhibiting PDE 4
Description: PDE 4 inhibition may be assays using any methods conventionally known in the art. For example, using a modification of the method of Hill and Mitchell [Hill and Mitchell, Faseb J., 8, A217 (1994)], U937 cells (a human promonocytic cell line) are grown to 1×10^6 cells/mL and collected by centrifugation. A cell pellet of 1×10^9 cells is washed in phosphate buffered saline and then frozen at −70° C. for later purification or immediately lysed in cold homogenization buffer (20 mM Tris-HCl, pH 7.1, 3 mM 2-mercaptoethanol, 1 mM magnesium chloride, 0.1 mM ethylene glycol-bis-(β-aminoethyl ether)-N,N,N^1,N^1-tetraacetic acid (EGTA), 1 μM phenylmethylsulfonyl fluoride (PMSF), and 1 μg/mL leupeptin). Cells are homogenized with 20 strokes in a Dounce homogenizer and the supernatant containing the cytosolic fraction are obtained by centrifugation. The supernatant is then loaded onto a Sephacryl S-200 column equilibrated in homogenization buffer. […]
The phosphodiesterase assay is carried out based on the procedure described by Hill and Mitchell. […] Each data point is carried out in duplicate and activity is expressed as percentage of control. The IC50s of the compounds are then determined from dose response curves of a minimum of three independent experiments.

For `CCOc1cc([C@@H](CS(C)(=O)=O)N2C(=O)c3cccc(NC(=O)CO)c3C2=O)ccc1OC` [(1S)—N-{2-[1-(3-Ethoxy-4-Methoxy-Phenyl)-2-Methanesulfonyl-Ethyl]-1,3-Dioxo-2,3-Dihydro-1H-Isoindol-4-yl}-2-Hydroxy-Acetamide], the IC50 (TNFα) was roughly 200 nM and the IC50 (PDE 4) was roughly 10 nM.
